According to patent publication US6518450B2, “Guaiacoxypropanolamines with alpha/beta adrenergic blocking activity” (priority 1997, dated 2003):
Read-outs that look alike come from different tables or passages of the source. Marks after values point to notes of the source that are not given here. Each block holds one molecule with its values, some of them ahead of it.

Legend:
[1] = system: isolated guinea pig thoracic aorta; conditions: 10 μM L-phenylephrine contraction, mean ± S.E. (n=6)
Source text: A 300-450 gram guinea pig is obtained, and forcefully hit at the head, and blood drained from the artery at the neck to quickly retrieve the main chest artery, which is placed in chilled Kreb solution and the fatty tissue clung to the vicinity of the blood vein is carefully removed, and then the main chest artery is trimmed to a circular shape of approximately 5 mm. Two S-shaped platinum threads are used to stabilize the top and bottom of the main artery before placing it in a 10-milliliter organ tank with 95% oxygen and 5% carbon dioxide mixed gas. One end is connected to the bottom of the organ tank, and the other end connected to the force transducer, and a recorder is used to record the isometric contraction. The specimen is given one gram of tension, and after balancing for 60 minutes, 10 μM of phenylephrine is prescribed to test the vivacity of the main chest artery. Upon balancing and the phenylephrine rinsed off, 10 μM of phenylephrine is used again to achieve the maximum contraction. And upon balancing, different concentration of synthetic testing compounds are used, 10^−5 M, 10^−6 M, or 10^−7 M, to observe the suppressing effects resulted from different concentrations of synthetic testing compounds.

β1-adrenoceptor [2] = conditions: versus isoproterenol, pulsating rate of right atrium; Schild plot regression; six to eight experiments
Source text: A 300˜450 gram guinea pig is obtained and hit forcefully at the head to put it into comatose, the artery at the neck is cut to release the blood, then the chest is immediately cut open, and the heart quickly retrieved and placed in Krebs solution that is connected to mixed gas(95% oxygen, 5% carbon dioxide), and the left, right auricles separated. The right auricle, which is pulsating in reflex action, is pinned down on both ends by a frog-heart tweezer, and one end stabilized at the bottom and placed in an organ rinser filled with 10 milliliter of Krebs solution with the mixed gas, and the temperature maintained at 32.5[…]; the other end is connected to the force transducer, and the isometric contractions and pulsating frequency are recorded through the Coulbourn At-High-Speed Videograph. The specimen is given tension between 100-150 milligrams, and upon balancing, the following experiment is conducted:
In order to evaluate the degree of vivacity of the β-blockade on the synthetic compounds, for each detached auricle in reflex pulsation, upon balancing(approximately 60 minutes), the cumulative-concentration curve of the β-agonist isoproterenol is completed twice separately. The experiment is designed as follows: <1>The first curve indicates direct application of isoproterenol from low concentration to high using 0.5 log unit to gradually increase until it reaches the maximum reaction; this is the control unit. <2>the second curve is the experimental unit. Different concentrations of synthetic testing compounds(10^−7 M, 10^−6 M, or 10^−5 M), from low concentration to high, are given 30 minutes to react before isoproterenol is used to complete the cumulative prescription. The EC50 value is obtained from observation of the suppressing effects generated from different concentrations of synthetic testing compounds.
According to the method used by Arunlakshana and Schild in 1959, the corresponding values of the synthetic testing compounds are used as the horizontal coordinate, and the corresponding values on the first derivative of the dose ratio are used as the vertical coordination, the values obtains are graphed and linear regression is implemented to obtain a regressed straight-line horizontal coordinate's extracted distance value, which is the pA2 value for this particular synthetic testing compound.

β1-adrenoceptor [3] = conditions: versus isoproterenol, contraction of left atrium; Schild plot regression; six to eight experiments
Protocol: The stimulating frequency is 0.5 Hz, resting tension is 0.5 grams. Upon balancing(approximately 50 minutes) the following experiment is conducted;
(a) Completion of the cumulative concentration-response curves, which is similar to the experimenting methods use on the same detached right auricle.
(b) The calculation of pA2 value is same as the calculation method used in the experiment of the detached right auricle.

α-adrenoceptor = conditions: versus L-phenylephrine contraction of detached chest artery; Schild plot regression
Protocol: Same as the blood vein relaxation experiment, detached primary artery taken from the guinea pig is given 1 gram of tension, and upon balancing for 60 minutes, L-phenylephrine is administered directly from low concentration to high using 0.5 log unit to gradually increase until the maximum reaction is reached, and this act as the control unit. Then different concentrations of the synthetic testing compound, 10^−7 M, 10^−6 M, or 10^−5 M, are used, and upon 30 minutes of reaction, L-phenylephrine is used again to complete the cumulative dose. The EC50 value may be obtained from observation of the suppressing effects caused by different concentrations of the synthetic testing compound.
It is same as the calculation method used in the experiment of the detached right auricle.

[4] = system: pentobarbital-anesthetized normotensive rats; conditions: mean ± S.E. (n=6)
Protocol: A male Wistar Strain, weighing 300˜450 grams, is administered with 40 mg/kg of pentobarbital sodium via hypodermic syringe for anesthesia before implementing trachea dissection and inserting respiratory tube to ensure the animal maintains smooth breath during operation, while also facilitating emergency rescue. The tube insertion is done with a polyethylene tube (PE50), with inner diameter of […] and outer diameter of 0.97 mm, on the femoral vein to facilitate administering medication during the experiment; a 3-way stopcock is used by connecting one end to the medicated bottle, while the other end is connected to the saline solution bottle, thus some saline solution can be injected right after administering the medication to prevent the medication from lingering in the polyethylene tube (PE50) that may affect the accuracy of the experiment. The left artery is also inserted with the polyethylene tube(PE50) by using the same 3-way stopcock with one end connected to heparin solution as the polyethylene tube (PE50) is equipped with a valve to clear any blockage in the path; the other end is connected to disposable diaphgram dome (TA1019), which is then connected to the data converter, and through an amplifier, and then finally through the recorder to record the medication's impact on the male Wistar Strain's blood pressure and heartbeat. The Wistar Strain is given different dosages of test medication in 1.0, 1.5, 3.0 mg/kg respectively through intravenous injection to examine the medication's effects on heartbeat and blood pressure.

β2-adrenoceptor = target: T1, β2-adrenoceptor (Cavia porcellus, UniProt Q8K4Z4); test: β2 adrenergic blockade against isoproterenol, isolated guinea pig respiratory tract (Schild plot); conditions: versus isoproterenol relaxation of detached respiratory tract; Schild plot regression
T1 construct: from tissue; host or cells: isolated guinea pig trachea (spiral strips, reserpine-pretreated animal)
T1 sequence (Q8K4Z4 whole entry): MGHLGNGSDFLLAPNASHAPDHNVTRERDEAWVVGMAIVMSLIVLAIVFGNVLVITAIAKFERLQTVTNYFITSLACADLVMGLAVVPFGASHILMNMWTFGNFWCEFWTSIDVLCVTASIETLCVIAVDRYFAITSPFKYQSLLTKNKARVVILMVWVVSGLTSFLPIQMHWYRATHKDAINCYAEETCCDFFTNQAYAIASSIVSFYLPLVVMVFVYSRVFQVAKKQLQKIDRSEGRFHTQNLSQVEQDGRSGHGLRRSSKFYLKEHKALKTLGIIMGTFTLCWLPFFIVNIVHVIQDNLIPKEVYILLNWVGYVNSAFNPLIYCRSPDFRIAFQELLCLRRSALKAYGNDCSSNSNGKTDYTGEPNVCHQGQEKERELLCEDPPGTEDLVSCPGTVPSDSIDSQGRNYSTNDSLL
Protocol: 300-450 gram guinea pig is obtained, and 5 mg/kg reserpine is injected on the belly 18˜24 hours prior to the experiment. Upon hitting the guinea pig into comatose, the artery at the neck is cut and the blood released, and the chest is immediately cut open and the respiratory tract (approximately 4 centimeters long) is taken along the neck and placed in a cultivation dish containing Krems solution at room temperature and connected to mixed gas of 95% oxygen and 5% carbon dioxide. The surrounding tissues are carefully removed, then the respiratory tract is cut to spiral shape that contains 3 to 4 bone coils at each turn, and then cut in two halves, with the two sides clamped by the frog-heart tweezer; one end is stabilized at the bottom and placed in the organ rinser filled with 20 ml of Krebs solution with mixed gas and the temperature maintained at 32° C.; the other side is connected to the force transducer, and even-length isometric contraction is recorded through the Coulbourn At-High-Speed Videograph. The sample is given 2 grams of tension, and upon balancing, the following experiment is conducted.
The respiratory tract used in the experiment is first balanced (approximately one hour) to derive a reflex tension, and then for each half of the respiratory tract, cumulative concentration-response curve for the isoproterenol is completed twice. In the first curve, no synthetic testing compound is added, and is used as the control unit; in the second curve, the synthetic compound first added for an hour before implementing the cumulative concentration-response curve, which is the experimental unit.

Compound: CCCCCCCCC(=O)NCc1ccc(OCC(O)CNCCOc2ccccc2OC)c(OC)c1 (stereo not shown) [Compound 3]
percentage of relaxation in comparison with the basal value ([1]; 10^−5 M): −40.7 ± 8.4%
percentage of relaxation in comparison with the basal value ([1]; 10^−6 M): −34.5 ± 4.2%
PA2 value β1 right atrium (β1-adrenoceptor [2]): 7.80
PA2 value β1 left atrium (β1-adrenoceptor [3]): 7.61
PA2 value α (α-adrenoceptor): 7.12
Blood pressure change ([4]; 1 mg/kg intravenous): −32.6 ± 5.5 mmHg
Blood pressure change ([4]; 1.5 mg/kg intravenous): −41.7 ± 4.0 mmHg
Blood pressure change ([4]; 3 mg/kg intravenous): −52.0 ± 8.0 mmHg
PA2 value β2 (β2-adrenoceptor): 6.81

PA2 value β2 (β2-adrenoceptor): 7.05
Compound: CCOC(=O)C=Cc1ccc(OCC(O)CNCCOc2ccccc2OC)c(OC)c1 (stereo not shown) [Compound 2, 1-[(4-propenoic acid ethyl ester-2-methoxy)phenoxy]-3-[(2-methoxyphenoxyethyl)amino]-propanol]
percentage of relaxation in comparison with the basal value ([1]; 10^−5 M): −42.1 ± 9.1%
percentage of relaxation in comparison with the basal value ([1]; 10^−6 M): −35.9 ± 7.9%
PA2 value β1 right atrium (β1-adrenoceptor [2]): 8.02
PA2 value β1 left atrium (β1-adrenoceptor [3]): 8.16
PA2 value α (α-adrenoceptor): 7.95
Blood pressure change ([4]; 1 mg/kg intravenous): −37.5 ± 5.2 mmHg
Blood pressure change ([4]; 1.5 mg/kg intravenous): −44.2 ± 8.0 mmHg
Blood pressure change ([4]; 3 mg/kg intravenous): −52.4 ± 4.5 mmHg

PA2 value β2 (β2-adrenoceptor): 6.59
Compound: C=CCc1ccc(OCC(O)CNCCOc2ccccc2OC)c(OC)c1 (stereo not shown) [Compound 1, 1-[(4-allyl-2-methoxy)phenoxy}-3-[(2-methoxyphenoxyethyl)amino}-propanol]
percentage of relaxation in comparison with the basal value ([1]; 10^−4 M): −62.8 ± 8.7^a %
percentage of relaxation in comparison with the basal value ([1]; 10^−5 M): −51.7 ± 6.8%
percentage of relaxation in comparison with the basal value ([1]; 10^−6 M): −39.7 ± 9.1%
PA2 value β1 right atrium (β1-adrenoceptor [2]): 7.83
PA2 value β1 left atrium (β1-adrenoceptor [3]): 7.95
PA2 value α (α-adrenoceptor): 8.12
Blood pressure change ([4]; 1 mg/kg intravenous): −23.1 ± 4.5 mmHg
Blood pressure change ([4]; 1.5 mg/kg intravenous): −30.1 ± 3.6 mmHg
Blood pressure change ([4]; 3 mg/kg intravenous): −38.1 ± 5.1 mmHg

PA2 value β2 (β2-adrenoceptor): 6.13
Compound: CC=Cc1ccc(OCC(O)CNCCOc2ccccc2OC)c(OC)c1 (stereo not shown) [Compound 4, 1-[(4-propenyl-2-methoxy)-phenoxy]-3-[(2-methoxyphenoxyethyl)amino]-propanol]
percentage of relaxation in comparison with the basal value ([1]; 10^−5 M): −30.1 ± 3.6%
percentage of relaxation in comparison with the basal value ([1]; 10^−6 M): −23.4 ± 3.7%
PA2 value β1 right atrium (β1-adrenoceptor [2]): 7.63
PA2 value β1 left atrium (β1-adrenoceptor [3]): 7.89
PA2 value α (α-adrenoceptor): 7.20
Blood pressure change ([4]; 1 mg/kg intravenous): −24.9 ± 3.2 mmHg
Blood pressure change ([4]; 1.5 mg/kg intravenous): −29.5 ± 5.1 mmHg
Blood pressure change ([4]; 3 mg/kg intravenous): −36.4 ± 7.2 mmHg
